Reference: ChEMBL document CHEMBL4673317, “Linearolactone and Kaempferol Disrupt the Actin Cytoskeleton in Entamoeba histolytica: Inhibition of Amoebic Liver Abscess Development” (J Nat Prod, 2020)
The source made the active and inactive calls. No cut-off for these calls is given here.

Key:
Entamoeba histolytica [1] = assay: Binding affinity to Entamoeba histolytica […] trophozoites actin assessed as formation of pseudo-plates at IC50 concentration incubated for 1 hrs by […] staining based confocal microscopic analysis
Entamoeba histolytica [2] = assay: Induction of ROS generation in Entamoeba histolytica […] trophozoites at IC50 concentration incubated for 1 hr by DCFDA staining based assay; assay type: functional, organism-based; conditions: HM-1:IMSS
CHO-K1 = assay: Cytotoxicity against CHO-K1 cells assessed as reduction in cell viability after 24 hrs by MTT assay; assay type: cell-based; conditions: Cricetulus griseus, CHO-K1, 24 h
Entamoeba histolytica [3] = assay: Antimicrobial activity against Entamoeba histolytica […] trophozoites infected in Syrian hamster assessed as platelets at 0.1 mg/kg, ip at 4 days post infection and measured on day 8 (reference value: 439 +/- 108 […]); assay type: functional, HM-1:IMSS; conditions: time 4 day
Entamoeba histolytica [4] = assay: Induction of apoptosis in Entamoeba histolytica […] trophozoites assessed as early apoptotic cells at IC50 concentration after 48 hrs by annexin-V-FITC/propidium iodide staining based flow cytometric analysis (reference value: 0.9%); assay type: functional, HM-1:IMSS
Entamoeba histolytica [5] = assay: Induction of ROS generation in Entamoeba histolytica […] trophozoites at IC50 concentration incubated for 1 hr in presence of trolox by DCFDA staining based assay relative to control; assay type: functional, HM-1:IMSS
Entamoeba histolytica [6] = assay: Induction of apoptosis in Entamoeba histolytica […] trophozoites assessed as necrotic cells at IC50 concentration after 48 hrs by annexin-V-FITC/propidium iodide staining based flow cytometric analysis (reference value: 0.4%); assay type: functional, HM-1:IMSS
Entamoeba histolytica [7] = assay: Antimicrobial activity against Entamoeba histolytica […] trophozoites infected in Syrian hamster assessed as blood ureic nitrogen level at 0.1 mg/kg, ip at 4 days post infection and measured on day 8 (reference value: […]); assay type: functional, HM-1:IMSS; conditions: time 4 day
Entamoeba histolytica [8] = assay: Induction of apoptosis in Entamoeba histolytica […] trophozoites assessed as viable cells at IC50 concentration after 48 hrs by annexin-V-FITC/propidium iodide staining based flow cytometric analysis (reference value: 98%); assay type: functional, HM-1:IMSS
Entamoeba histolytica [9] = assay: Antimicrobial activity against Entamoeba histolytica […] trophozoites assessed as decrease in granularity at IC50 concentration after 48 hrs by uranyl acetate staining based TEM analysis; assay type: functional, organism-based; conditions: HM-1:IMSS
Entamoeba histolytica [10] = assay: Antimicrobial activity against Entamoeba histolytica […] trophozoites infected in Syrian hamster assessed as urea level at 0.1 mg/kg, ip at 4 days post infection and measured on day 8 (reference value: 14 +/- 1 mg/dl); assay type: functional, HM-1:IMSS; conditions: time 4 day
Entamoeba histolytica [11] = assay: Antimicrobial activity against Entamoeba histolytica […] trophozoites assessed as decrease in size of cells at IC50 concentration after 48 hrs by uranyl acetate staining based TEM analysis; assay type: functional, organism-based; conditions: HM-1:IMSS
Entamoeba histolytica [12] = assay: Antimicrobial activity against Entamoeba histolytica […] trophozoites assessed as abnormal condensation of chromatin at IC50 concentration after 48 hrs by uranyl acetate staining based TEM analysis; assay type: functional, organism-based; conditions: HM-1:IMSS
Entamoeba histolytica [13] = assay: Antimicrobial activity against Entamoeba histolytica […] trophozoites infected in Syrian hamster assessed as glucose level at 0.1 mg/kg, ip at 4 days post infection and measured on day 8 (reference value: 126 +/- 18 mg/dl); assay type: functional, HM-1:IMSS; conditions: time 4 day
Entamoeba histolytica [14] = assay: Antimicrobial activity against Entamoeba histolytica […] trophozoites infected in Syrian hamster assessed as ALP level at 0.1 mg/kg, ip at 4 days post infection and measured on day 8 (reference value: 638 +/- 50 U/L); assay type: functional, HM-1:IMSS; conditions: time 4 day
Entamoeba histolytica [15] = assay: Antimicrobial activity against Entamoeba histolytica […] trophozoites infected in Syrian hamster assessed as total bilirubin level at 0.1 mg/kg, ip at 4 days post infection and measured on day 8 (reference value: 0.8 +/- 0.2 mg/dl); assay type: functional, HM-1:IMSS; conditions: time 4 day
Entamoeba histolytica [16] = assay: Antimicrobial activity against Entamoeba histolytica […] trophozoites infected in Syrian hamster assessed as triglycerides level at 0.1 mg/kg, ip at 4 days post infection and measured on day 8 (reference value: 395 +/- 41 mg/dl); assay type: functional, HM-1:IMSS; conditions: time 4 day
Entamoeba histolytica [17] = assay: Antimicrobial activity against Entamoeba histolytica HM1:MMS assessed as reduction in amoeba growth; assay type: functional, organism-based; conditions: HM-1:IMSS
Entamoeba histolytica [18] = assay: Antimicrobial activity against Entamoeba histolytica […] trophozoites infected in Syrian hamster assessed as creatinine level at 0.1 mg/kg, ip at 4 days post infection and measured on day 8 (reference value: 0.9 +/- 0.06 mg/dl); assay type: functional, HM-1:IMSS; conditions: time 4 day
Entamoeba histolytica [19] = assay: Induction of apoptosis in Entamoeba histolytica […] trophozoites assessed as late apoptotic cells at IC50 concentration after 48 hrs by annexin-V-FITC/propidium iodide staining based flow cytometric analysis (reference value: 0.7%); assay type: functional, HM-1:IMSS
Entamoeba histolytica [20] = assay: Antimicrobial activity against Entamoeba histolytica […] trophozoites infected in Syrian hamster assessed as ALT level at 0.1 mg/kg, ip at 4 days post infection and measured on day 8 (reference value: 276 +/- 24 U/L); assay type: functional, HM-1:IMSS; conditions: time 4 day
BEAS-2B = assay: Cytotoxicity against human BEAS-2B cells assessed as reduction in cell viability after 24 hrs by MTT assay; assay type: cell-based
Entamoeba histolytica [21] = assay: Antimicrobial activity against Entamoeba histolytica […] trophozoites infected in Syrian hamster assessed as inhibition of amoebic liver abscess by measuring edema at 0.1 mg/kg, ip at 4 days post infection and measured on day 8 by H and E staining based microscopic method; assay type: functional, organism-based; conditions: HM-1:IMSS, time 4.0 day
Entamoeba histolytica [22] = assay: Antimicrobial activity against Entamoeba histolytica […] trophozoites infected in Syrian hamster assessed as inhibition of amoebic liver abscess by abundant monocytes at 0.1 mg/kg, ip at 4 days post infection and measured on day 8 by H and E staining based microscopic method; assay type: functional, organism-based; conditions: HM-1:IMSS, time 4.0 day
Entamoeba histolytica [23] = assay: Binding affinity to Entamoeba histolytica […] trophozoites actin assessed as induction of polarization of polymerized actin at IC50 concentration incubated for 1 hrs by […] staining based confocal microscopic analysis
Entamoeba histolytica [24] = assay: Antimicrobial activity against Entamoeba histolytica […] trophozoites infected in Syrian hamster assessed as inhibition of amoebic liver abscess by measuring vascular congestion at 0.1 mg/kg, ip at 4 days post infection and measured on day 8 by H and E staining based microscopic method; assay type: functional, organism-based; conditions: HM-1:IMSS, time 4.0 day
Entamoeba histolytica [25] = assay: Antimicrobial activity against Entamoeba histolytica […] trophozoites infected in Syrian hamster assessed as inhibition of amoebic liver abscess by measuring liver weight at 0.1 mg/kg, ip at 4 days post infection and measured on day 8 relative to control; assay type: functional; conditions: HM-1:IMSS, 96 h, time 4 day
Entamoeba histolytica [26] = assay: Antimicrobial activity against Entamoeba histolytica […] trophozoites assessed as decrease in number of vacuoles at IC50 concentration after 48 hrs by uranyl acetate staining based TEM analysis; assay type: functional, organism-based; conditions: HM-1:IMSS
Entamoeba histolytica [27] = assay: Antimicrobial activity against Entamoeba histolytica […] trophozoites infected in Syrian hamster assessed as inhibition of amoebic liver abscess at 0.1 mg/kg, ip at 4 days post infection and measured on day 8 by NMR analysis; assay type: functional, organism-based; conditions: HM-1:IMSS, time 4.0 day
Entamoeba histolytica [28] = assay: Induction of DNA fragmentation in Entamoeba histolytica […] trophozoites at IC50 concentration after 1 hr by TUNEL assay relative to control; assay type: functional, HM-1:IMSS
Entamoeba histolytica [29] = assay: Induction of ROS generation in Entamoeba histolytica […] trophozoites at IC50 concentration incubated for 1 hr in presence of catalase by DCFDA staining based assay relative to control; assay type: functional, HM-1:IMSS

SMILES	Activity (Entamoeba histolytica [2])	IC50 (CHO-K1) [µM]	Activity (Entamoeba histolytica [3]) [thousand/mm3]	Activity (Entamoeba histolytica [4]) [%]	Activity (Entamoeba histolytica [6]) [%]	Activity (Entamoeba histolytica [7]) [mg/dL]	Activity (Entamoeba histolytica [8]) [%]	Activity (Entamoeba histolytica [9])	Activity (Entamoeba histolytica [10]) [mg/dL]	Activity (Entamoeba histolytica [11])	Activity (Entamoeba histolytica [12])	Activity (Entamoeba histolytica [13]) [mg/dL]	Activity (Entamoeba histolytica [14]) [U/L]	Activity (Entamoeba histolytica [15]) [mg/dL]	Activity (Entamoeba histolytica [16]) [mg/dL]	IC50 (Entamoeba histolytica [17]) [µM]	Activity (Entamoeba histolytica [18]) [mg/dL]	Activity (Entamoeba histolytica [19]) [%]	Activity (Entamoeba histolytica [20]) [U/L]	IC50 (BEAS-2B) [µM]	other results
Cc1ncc([N+](=O)[O-])n1CCO [METRONIDAZOLE]	Active	2920	616	5.5	0.3	19	91.3	Active	41	Active	Active	148	185	0.8	335	22.9	1	2.9	159	2240	Activity (Entamoeba histolytica [1]): Active; Activity (Entamoeba histolytica [5]): 49.11%
C[C@]12C[C@H](c3ccoc3)OC(=O)[C@H]1CC[C@@]13COC(=O)C1=CC=C[C@H]32	Active	880	320	19.5	9.4	17	12.6	Active	45	Active	Active	130	324	0.4	127	27.7	0.6	58.6	81	600	inhibition (Entamoeba histolytica [21]): Active; inhibition (Entamoeba histolytica [22]): Active; Activity (Entamoeba histolytica [23]): Active; inhibition (Entamoeba histolytica [24]): Active; inhibition in vivo at 0.1 mg/kg (Entamoeba histolytica [25]): 93.3%; Activity (Entamoeba histolytica [26]): Active; inhibition (Entamoeba histolytica [27]): Active; Activity (Entamoeba histolytica [28]): 78%; Activity (Entamoeba histolytica [29]): 52.68%
